The text below walks through data of patent US9447100B2, “Substituted pyrazolo[1,5-A] pyrimidines as calcium receptor modulating agents” (Takeda Pharmaceutical Company Limited, priority 2002, dated 2016).

Structures can show the parent of a compound that is named as a salt.

The first data set concerns the target T1, human CaR (Homo sapiens, UniProt P41180).
T1 construct: expressed in transfected cells; host or cells: CHO-K1 cells stably transfected with pMSRαneo-CaR (cDNA amplified from human kidney cDNA); membrane fraction used
T1 sequence (P41180 20-1078): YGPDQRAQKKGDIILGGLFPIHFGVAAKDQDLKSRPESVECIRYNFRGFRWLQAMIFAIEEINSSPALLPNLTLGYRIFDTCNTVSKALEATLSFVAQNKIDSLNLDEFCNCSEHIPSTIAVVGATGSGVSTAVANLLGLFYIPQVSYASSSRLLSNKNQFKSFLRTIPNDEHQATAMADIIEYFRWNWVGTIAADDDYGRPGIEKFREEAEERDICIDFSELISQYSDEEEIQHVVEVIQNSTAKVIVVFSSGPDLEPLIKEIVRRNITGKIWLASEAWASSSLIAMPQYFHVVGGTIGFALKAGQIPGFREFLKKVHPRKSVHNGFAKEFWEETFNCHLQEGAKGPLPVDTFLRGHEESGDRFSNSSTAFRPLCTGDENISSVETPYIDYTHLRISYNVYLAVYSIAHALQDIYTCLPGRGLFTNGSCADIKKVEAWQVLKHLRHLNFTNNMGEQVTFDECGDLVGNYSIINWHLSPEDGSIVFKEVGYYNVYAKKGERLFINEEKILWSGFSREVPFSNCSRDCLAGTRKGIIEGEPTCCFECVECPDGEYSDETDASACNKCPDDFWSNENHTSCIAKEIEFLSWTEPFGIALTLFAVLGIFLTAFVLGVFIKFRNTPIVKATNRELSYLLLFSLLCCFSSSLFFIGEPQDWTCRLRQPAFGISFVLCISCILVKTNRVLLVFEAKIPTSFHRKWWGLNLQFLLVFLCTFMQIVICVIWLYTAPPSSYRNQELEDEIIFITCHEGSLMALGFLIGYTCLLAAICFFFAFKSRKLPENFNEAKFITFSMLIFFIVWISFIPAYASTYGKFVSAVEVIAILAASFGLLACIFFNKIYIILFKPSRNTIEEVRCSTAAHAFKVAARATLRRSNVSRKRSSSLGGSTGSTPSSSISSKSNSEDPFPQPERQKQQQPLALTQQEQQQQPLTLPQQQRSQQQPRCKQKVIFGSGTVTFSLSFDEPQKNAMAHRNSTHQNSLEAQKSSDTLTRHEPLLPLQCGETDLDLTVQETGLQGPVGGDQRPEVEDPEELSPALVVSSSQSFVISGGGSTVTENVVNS
Put plainly: [35S]-GTPγS binding assay in membrane fraction of human CaR-expressing CHO cells. The format is biochemical. The note with it: test compound 1 μM; relative to binding with 6 mM calcium only (100×(t′−b)/(t−b)); compounds marked antagonist. The protocol:
Preparation of membrane fraction is described bellow. The human CaR-expressing CHO cells were inoculated to a F500 flask in 1.8×10^5 cells/flask followed by cultivation for 2 days. The cells were scraped with 10 ml of Phosphate-Buffered Saline containing 0.02% EDTA. After centrifugation (2000 rpm, 10 min) of the cells, the cell pellet was resuspended into 12 ml of homogenate buffer solution (10 mM NaHCO3, 1 mM EDTA, 1× Protease inhibitor cocktail (pH 7.4)) and homogenized by Polytron™ (20000 rpm, 1 min). The cell debris was removed by centrifugation (2000 rpm, 10 min), and then the CaR-expressing cell membrane fraction was collected by ultracentrifugation (Beckman 70 Ti type rotor, 30000 rpm, 1 hour).
The GTPγS binding activity was measured as follows. Twenty μg of the CaR-expressing cell membrane was incubated with test compounds for 10 min. The assays were carried out at room temperature for an hour in a reaction solution mixture containing 20 mM HEPES (pH. 7.4), 100 mM NaCl, 1 mM MgCl2, 167 μg/ml DTT, 5 μM guanosine 5′-diphosphate, 0.4 nM [^35S]-guanosine 5′-(γ-thio)triphosphate ([^35S]-GTPγS) and 6 mM CaCl2. The mixture was filtered through a GF/C filter. After washing fourth with 300 μl of Phosphate-Buffered Saline, the amount of [^35S]-GTPγS bound to the filter was measured using a Top-count scintillation counter.
Effects of test compounds on [^35S]-GTPγS binding were expressed in percentage terms. This was calculated from the equation [100×(t′−b)]/(t−b) where t′, t and b are values of [^35S]-GTPγS binding (dpm), t′ in the presence of 6 mM calcium and the test compound, t in the presence of 6 mM calcium only and b in the absence of both 6 mM calcium and the test compound.
On to `CC1(C(F)(F)F)CC(c2ccccc2)Nc2c(C(=O)NC34CC5CC(CC(C5)C3)C4)cnn21` (centres unmarked) [Example 436, N-(1-adamantyl)-7-methyl-5-phenyl-7-(trifluoromethyl)-4,5,6,7-tetrahydropyrazolo[1,5-a]pyrimidine-3-carboxamide], for which the “[35S]-GTPγS binding (%)” value is recorded as 12 (1 μM) %.

As to `Cc1ccc(C(OC2CCN(C(=O)c3cnn4c3NC(c3ccccc3)CC4C(F)(F)F)CC2)c2ccc(C)cc2)cc1` (centres unmarked) [Example 312, 3-((4-(bis(4-methylphenyl)methoxy)-1-piperidinyl)carbonyl)-5-phenyl-7-(trifluoromethyl)-4,5,6,7-tetrahydropyrazolo[1,5-a]pyrimidine], the “[35S]-GTPγS binding (%)” value is 10 (1 μM) %.

With `CCC(CC)(NC(=O)c1cnn2c1NC(c1ccccc1)CC2(C)C)c1ccc(-c2ccsc2)cc1` (centres unmarked) [Example 423, N-(1-ethyl-1-(4-(3-thienyl)phenyl)propyl)-7,7-dimethyl-5-phenyl-4,5,6,7-tetrahydropyrazolo[1,5-a]pyrimidine-3-carboxamide], the “[35S]-GTPγS binding (%)” value is recorded as 0 (1 μM) %.

As for `COc1ccc(C(NC(=O)c2cnn3c2NC(c2ccccc2)CC3C)c2ccc(OC)cc2)cc1` (centres unmarked) [Example 335, N-(bis(4-methoxyphenyl)methyl)-7-methyl-5-phenyl-4,5,6,7-tetrahydropyrazolo[1,5-a]pyrimidine-3-carboxamide], the “[35S]-GTPγS binding (%)” value was 0 (1 μM) %.

Take `CCC(CC)(NC(=O)c1cnn2c1NC(c1ccccc1)CC2C(F)(F)F)c1ccc(C(F)(F)F)cc1` (centres unmarked) [Example 310, N-(1-ethyl-1-(4-(trifluoromethyl)phenyl)propyl)-5-phenyl-7-(trifluoromethyl)-4,5,6,7-tetrahydropyrazolo[1,5-a]pyrimidine-3-carboxamide]: the “[35S]-GTPγS binding (%)” value was 0 (1 μM) %.

With `COc1ccc(C(CNC(=O)c2cnn3c2NC(c2ccccc2)CC3C(F)(F)F)c2ccccc2)cc1` (centres unmarked) [Example 318, N-(2-(4-methoxyphenyl)-2-phenylethyl)-5-phenyl-7-(trifluoromethyl)-4,5,6,7-tetrahydropyrazolo[1,5-a]pyrimidine-3-carboxamide], the “[35S]-GTPγS binding (%)” value is recorded as 34 (1 μM) %.

The data set is the same for the next values; noted with them: test compound 10 μM; relative to binding with 6 mM calcium only (100×(t′−b)/(t−b)); compound marked agonist.
`O=C(NCC(c1ccccc1)N1CCCC1)c1cnn2c1N[C@@H](c1ccccc1)C[C@H]2C(F)(F)F` (stereo in doubt) [Example 111, 5-phenyl-N-(2-phenyl-2-(1-pyrrolidinyl)ethyl)-7-(trifluoromethyl)-4,5,6,7-tetrahydropyrazolo[1,5-a]pyrimidine-3-carboxamide]: the “[35S]-GTPγS binding (%)” value was 256 (10 μM) %.

Test system in another data set: not given
Test: not given
Settings: not given
The molecule `Cc1nn2c(c1C(=O)NC(C)(C)c1ccc(Cl)cc1)NC(c1ccccc1)CC2(C)C` (centres unmarked) (as salt: HCl) [Example 792, N-(1-(4-chlorophenyl)-1-methylethyl)-2,7,7-trimethyl-5-phenyl-4,5,6,7-tetrahydropyrazolo[1,5-a]pyrimidine-3-carboxamide] registered a melting point of 204 to 205 °C.

In turn, `O=C(O)c1cnn2c1NC(c1cccc(Cl)c1)CC2C(F)(F)F` (centres unmarked) [Example 33, 5-(3-chlorophenyl)-7-(trifluoromethyl)-4,5,6,7-tetrahydropyrazolo[1,5-a]pyrimidine-3-carboxylic acid] came in with a melting point of 194 to 195 °C.

`CCC(CC)(NC(=O)c1cnn2c1NC(c1ccccc1)CC2(C)C)c1ccc(COC(C)=O)cc1` (centres unmarked) [Example 737, 4-(1-(((7,7-dimethyl-5-phenyl-4,5,6,7-tetrahydropyrazolo[1,5-a]pyrimidin-3-yl)carbonyl)amino)-1-ethylpropyl)benzyl acetate] yielded a melting point of 185 to 186 °C.

`Cc1nn2c(c1C(=O)O)NC(c1cccc(F)c1)CC2(C)C` (centres unmarked) [Example 945, 5-(3-fluorophenyl)-2,7,7-trimethyl-4,5,6,7-tetrahydropyrazolo[1,5-a]pyrimidine-3-carboxylic acid] showed a melting point of 153 to 155 °C.

`CCC(CC)(NC(=O)c1c(C)nn2c1NC(c1cccs1)CC2(C)C)c1ccc(C)cc1` (centres unmarked) (as salt: HCl) [Example 956, N-(1-ethyl-1-(4-methylphenyl)propyl)-2,7,7-trimethyl-5-(2-thienyl)-4,5,6,7-tetrahydropyrazolo[1,5-a]pyrimidine-3-carboxamide] registered a melting point of 149 to 150 °C.

`CCc1ccc(C2CC(C(F)(F)F)n3ncc(C(=O)O)c3N2)cc1` (centres unmarked) [Example 28, 5-(4-ethylphenyl)-7-(trifluoromethyl)-4,5,6,7-tetrahydropyrazolo[1,5-a]pyrimidine-3-carboxylic acid] registered a melting point of 165 to 168 °C.

Consider `CCC(CC)(NC(=O)c1c(C)nn2c1NC(c1ccccc1F)CC2(C)C)c1ccc(C)cc1` (centres unmarked) (as salt: HCl) [Example 831, N-(1-ethyl-1-(4-methylphenyl)propyl)-5-(2-fluorophenyl)-2,7,7-trimethyl-4,5,6,7-tetrahydropyrazolo[1,5-a]pyrimidine-3-carboxamide], for which the melting point lay in the range of 152 to 153 °C.

In the case of `CC(C)(CC1Cc2ccccc2C1)NC(=O)c1cnn2c1NC(c1ccccc1)CC2C(F)(F)F` (centres unmarked) [Example 292, N-(2-(2,3-dihydro-1H-inden-2-yl)-1,1-dimethylethyl)-5-phenyl-7-(trifluoromethyl)-4,5,6,7-tetrahydropyrazolo[1,5-a]pyrimidine-3-carboxamide], the melting point is 221 to 222 °C.

As for `CC1(C)CC(c2ccccc2)Nc2c(C(=O)NC(c3ccc(Cl)cc3)c3ccc(Cl)cc3)cnn21` (centres unmarked) [Example 405, N-(bis(4-chlorophenyl)methyl)-7,7-dimethyl-5-phenyl-4,5,6,7-tetrahydropyrazolo[1,5-a]pyrimidine-3-carboxamide], the melting point lay within 180 to 181 °C.

`CC1(C)CC(c2ccccc2)Nc2c(C(=O)NC(c3ccc(C(F)(F)F)cc3)(C3CCCCC3)C3CCCCC3)cnn21` (centres unmarked) [Example 412, N-(dicyclohexyl(4-(trifluoromethyl)phenyl)methyl)-7,7-dimethyl-5-phenyl-4,5,6,7-tetrahydropyrazolo[1,5-a]pyrimidine-3-carboxamide] had a melting point of 146 to 147 °C.
